Source: publication PMC8251916 (Chemistry (Weinheim an Der Bergstrasse, Germany), 2021)
Like-named read-outs stand apart in the source and are kept apart here.

Experiments:
[1] = system: F10T (DNA, hairpin, hexaethylene glycol (HEG) linker between 10 and 11) TATAGCTATATATAGCTATA; assay: FRET melting; details: 10 mM K+, 90 mM Li+; 10 mM Li cacodylate; 1 µM ligand, 200 nM DNA
[2] = system: T. brucei; design: method as in earlier work; details: typical G4 interactive compounds; ref 6b; cited from earlier work
[3] = system: F21T-K+ (human telomeric G-quadruplex, mixed parallel/hybrid); assay: FRET melting assay, human telomeric G4 in potassium buffer; format: binding; details: 200 nM DNA, PIPER and 3 not reliable (spectral overlap)
Protocol: (§1) With the library in hand, we began our investigation into G4 stabilization by conducting a Förster resonance energy transfer (FRET) melting assay to assess DNA stabilization using the procedure outlined by De Cian et. al. ^[13] […] The sequences examined (at 200 nM) were the human telomeric G4 in potassium buffer (F21T‐K^+, mixed parallel/hybrid G4) ^[14] and sodium buffer (F21T‐Na^+, antiparallel G4), ^[15] the c‐Myc promoter G‐quadruplex (FmycT‐K^+, parallel G4), ^[16] a polymorphic G4 found in T. brucei (FEBR1T‐K^+, a mixed G4 topology), ^[6b] and a hairpin duplex DNA sequence (F10T‐K^+). Together, these sequences represent targets for therapeutic intervention to treat parasitic infections, ^[6b] or cancer. ^[1b] The topology of each sequence was confirmed independently via circular dichroism (CD, Figure S1). […]
(§2) FRET melting assays were performed to assess ligand affinity for duplex and G-quadruplex
(§3) DNA. Briefly, oligonucleotides of interest were obtained labelled at the 5’ and 3’ ends with FAM (a fluorescence donor) and TAMRA (a fluorescence quencher), respectively. In the folded state, proximity of the donor and quencher result in no observed fluorescence from FAM, since energy is transferred non-radiatively to TAMRA by FRET. As the temperature is raised and the secondary structure denatures, the fluorophores move further apart and the fluorescence signal increases. From the resulting curve, the characteristic melting temperature (Tmax, also referred to as Tm) is defined as the temperature which corresponds to the maxima of the first derivative of the normalised fluorescence signal. The change in melting temperature (ΔTm) induced by the presence of a small molecule ligand provides an indication of the ligand’s ability to stabilise the DNA structure. FRET experiments were performed according to the […]
(§4) procedure reported by De Cian and co-workers[S3] on a Stratagene MX3005P. The method consisted of holding at 25 °C for 5 min, before heating at 1 °C/min to 96 °C in 1 °C increments, […]

[4] = system: MRC5 non-tumoral cells; assay: Cytotoxicity, alamarBlue assay, MRC5; format: cell-based, human; details: Homo sapiens, MRC5, 72 h, 72 h incubation, alamarBlue fluorescence; read-out: absolute EC50 MRC5
Protocol: (§5) Doxorubicin, suramin and miltefosine were used as control compounds.[ ^6b , ^9 ] After incubation with varied concentrations of the compounds for 72 h, cell viability was measured using either an alamarBlue™ assay (for MRC5, HeLa and T. brucei) or MTT assay (for L. major). Absolute EC50 values and selectivity indexes were then calculated from dose‐response curves (Table 2 and S14). […]
(§6) Cell culture reagents were purchased from Thermo Fisher Scientific (Waltham, MA, USA) and used as-is. The Dulbecco’s Minimal Essential Medium (DMEM) formulation contained either high glucose (4.5 g/L, catalogue number: 10569) or low glucose (1 g/L, catalogue number:
(§7) 10567). RPMI-1640 was provided without sodium pyruvate and with L-glutamine (catalogue number: 11875). Phosphate Buffered Saline (PBS) contained NaCl (9 g/L), KH2PO4 (144 mg/L) and Na2HPO4-7.H2O (795 mg/L, catalogue number: 10010049). TrypLE Express™ was provided with EDTA (458 mg/L) and without Phenol Red (catalogue number: 12604021).
(§8) MRC-5 cells (human lung fibroblasts) were grown in monolayer (37 °C, 5 % CO2 and 100 % humidity) in DMEM medium (1 g/L glucose), supplemented with 10% heat-inactivated Fetal Bovine Serum (hiFBS), 2 mM L-glutamine, 100 U / mL penicillin and […]
(§9) streptomycin. […]
(§10) Cells were cultured according to ATCC recommendations and were used for the experiments while in the exponential growth phase. […]
(§11) Cytotoxicity was measured through the alamarBlue® assay (Thermo Fisher Scientific).[S6,S13] Briefly, 5×10^3 MRC-5 or HeLa cells were seeded in 96-wells plates (100 µL / well) in the presence of increasing concentrations of compound. After 72 hrs of incubation at 37 °C, 20 µL of alamarBlue® solution (110 ng / ml) was added to each well and cells were reincubated for 4 hrs at 37 °C. Then, 50 µL of 3 % SDS were added to each well. The plate was incubated at 37 °C for an extra hour and then analysed by fluorescence with an Infinite F200 plate reader (TECAN Austria, GmbH). The excitation wavelength was fixed at 550 nm and the emission wavelength at 590 nm. The results are expressed as the concentration of compound that reduces

[5] = system: F21T (DNA, G4) GGGTTAGGGTTAGGGTTAGGG; assay: FRET melting; details: 10 mM K+, 90 mM Li+, 10 mM Li cacodylate, 200 nM DNA
[6] = system: HeLa cervical carcinoma cells; assay: Cytotoxicity, alamarBlue assay, HeLa; format: cell-based, human; details: Homo sapiens, HeLa; 72 h incubation, alamarBlue fluorescence; read-out: absolute EC50 HeLa
Protocol: as §5, §6, §7
MRC-5 cells (human lung fibroblasts) were grown in monolayer (37 °C, 5 % CO2 and 100 % humidity) in DMEM medium (1 g/L glucose), supplemented with 10% heat-inactivated Fetal Bovine Serum (hiFBS), 2 mM L-glutamine, 100 U / mL penicillin and […] streptomycin. HeLa (Human cervical carcinoma cell line) cells were maintained at 37 °C and 5 % CO2 in high glucose DMEM (4.5 g / L) supplemented with 10% hiFBS, 100 U / ml penicillin, […] streptomycin, 2 mM L-glutamine and non-essential aminoacids (1X).
as §10, §11

[7] = system: FmycT-K+ (c-Myc promoter G-quadruplex, parallel); assay: FRET melting assay, c-Myc promoter G4; format: binding; details: 200 nM DNA, PIPER and 3 not reliable (spectral overlap)
Protocol: as §1, §2, §3, §4

[8] = system: Febr1T-K+ (T. brucei G-quadruplex); assay: FRET melting assay, T. brucei G4; format: binding; details: 200 nM DNA, PIPER and 3 not reliable (spectral overlap)
Protocol: as §1, §2, §3, §4

[9] = system: L. major; assay: Leishmaniacidal activity, MTT assay; format: cell-based; details: Leishmania major; 72 h incubation, MTT absorbance; read-out: absolute EC50 L. major
Protocol: Doxorubicin, suramin and miltefosine were used as control compounds.[ ^6b , ^9 ] After incubation with varied concentrations of the compounds for 72 h, cell viability was measured using either an alamarBlue™ assay (for MRC5, HeLa and T. brucei) or MTT assay (for L. major). Absolute EC50 values and selectivity indexes were then calculated from dose‐response curves (Table 2 and S14).
Invitrogen). L. major promastigotes (MHOM/IL/80/Friedlin) were cultured at 28 °C, 5 % CO2 in modified RPMI-1640 medium (Thermo Fisher Scientific, Waltham, MA, USA) with 10% hiFBS. Parasites were split every other day and maintained in their experimental growth phase (below 2 million parasites per mL). […]
The results are expressed as the concentration of compound that reduces cell growth by 50 % versus untreated control cells (EC50) using GraphPad Prism 7 (GraphPad Software) to fit the data to a sigmoidal curve. Data are presented as the average of three independent measurements all conducted in triplicate conditions. […]
The leishmaniacidal activity of the compounds on promastigotes L. major (MHOM/IL/80/Friedlin) was carried out as previously described.[S14] Briefly, 4 × 10^6 / mL promastigotes were incubated for 72 h at 28 °C in 96-well plates (50 µL/well) in the presence of increasing concentration of compounds. Cell proliferation was determined using an MTT-based assay (Sigma-Aldrich). Thus, after the 72 h incubation, 10 µL of MTT (5 mg/ml) were added to each well and parasites were reincubated for 4 hrs at 28 °C. Then, 50 µL of 20 % SDS were added to each well. The plate was then incubated at 37°C for 4-16 hrs and analysed using an Infinite F200 plate reader (TECAN Austria, GmbH). The absorbance was measured […]
at a wavelength of 540 nm and the EC50 was calculated as described above. Data are presented as the average of three independent measurements, all conducted in triplicate conditions. […]

[10] = system: F10T-K+ (hairpin duplex DNA); assay: FRET melting assay, hairpin duplex DNA; format: binding; details: 200 nM DNA, PIPER and 3 not reliable (spectral overlap)
Protocol: as §1, §2, §3, §4

[11] = system: F21T-Na+ (human telomeric G-quadruplex, antiparallel); assay: FRET melting assay, human telomeric G4 in sodium buffer; format: binding; details: 200 nM DNA, PIPER and 3 not reliable (spectral overlap)
Protocol: as §1, §2, §3, §4

[12] = system: T. brucei; assay: Trypanocidal activity, alamarBlue assay; format: cell-based; details: Trypanosoma brucei; 72 h incubation, alamarBlue fluorescence; read-out: absolute EC50 T. brucei
Protocol: as §5, §6, §7, §8, §9, §10
hiFBS. Parasites were split every other day and maintained in their experimental growth phase (below 2 million parasites per mL).
as §11

[13] = system: FMycT (DNA, G4) TTGAGGGTGGGTAGGGTGGGTAA; assay: FRET melting; details: 1 mM K+, 99 mM Li+; 10 mM Li cacodylate; 1 µM ligand, 200 nM DNA
[14] = system: Febr1T (DNA, G4) GGGCAGGGGGTGATGGGGAGGAGCCAGGG; assay: FRET melting; details: 10 mM K+, 90 mM Li+; 10 mM Li cacodylate; 1 µM ligand, 200 nM DNA

C[n+]1ccc(-c2c3nc(c(-c4cc[n+](C)cc4)c4ccc([nH]4)c(-c4cc[n+](C)cc4)c4nc(c(-c5cc[n+](C)cc5)c5ccc2[nH]5)C=C4)C=C3)cc1
ΔTm [1]: 9 ± 1 °C

CN(C)c1ccc(Nc2c3ccc(NC(=O)CCN4CCCC4)cc3nc3cc(NC(=O)CCN4CCCC4)ccc23)cc1 [BRACO‐19]
EC50 [2]: 7.8 µM | selectivity index (SI) T. brucei over MRC5 [2]: 1.5

CN1CCN(CCCN2C(=O)c3ccc(-c4ccc5c(c4)C(=O)N(CCCN4CCN(C)CC4)C5=O)cc3C2=O)CC1 [Compound 4]
ΔTm F21T-K+ ([3]; 10 µM ligand): 1 ± 1 °C | EC50 [4]: > 100 µM | ΔTm ([5]; 10 µM ligand): 1 ± 1 °C | EC50 [6]: > 100 µM | ΔTm FmycT-K+ ([7]; 10 µM ligand): 2 ± 1 °C | ΔTm Febr1T-K+ ([8]; 10 µM ligand): 3 ± 1 °C | EC50 [9]: > 100 µM | ΔTm F10T-K+ ([10]; 10 µM ligand): 0 ± 1 °C | ΔTm F21T-Na+ ([11]; 10 µM ligand): -2 ± 2 °C | EC50 [12]: 57 ± 10 µM

CN1CCN(CCCNC(=O)c2ccc(C(=O)c3ccc(C(=O)NCCCN4CCN(C)CC4)c(C(=O)NCCCN4CCN(C)CC4)c3)cc2C(=O)NCCCN2CCN(C)CC2)CC1 [Compound 10]
ΔTm F21T-K+ ([3]; 10 µM ligand): -2 ± 1 °C | EC50 [4]: > 100 µM | EC50 [6]: > 100 µM | ΔTm FmycT-K+ ([7]; 10 µM ligand): -1 ± 1 °C | ΔTm Febr1T-K+ ([8]; 10 µM ligand): 1 ± 2 °C | EC50 [9]: > 100 µM | ΔTm F10T-K+ ([10]; 10 µM ligand): 0 ± 1 °C | ΔTm F21T-Na+ ([11]; 10 µM ligand): -2 ± 1 °C | EC50 [12]: 55 ± 3 µM

NCCOc1cc(C(=O)Nc2cc(OCCN)c3ccccc3n2)nc(C(=O)Nc2cc(OCCN)c3ccccc3n2)c1 [Pyridostatin, reference compound]
ΔTm F21T-K+ ([3]; 1 µM ligand): 34 ± 1 °C | EC50 [2]: 5.5 µM | ΔTm ([5]; 1 µM ligand): 34 ± 1 °C | ΔTm FmycT-K+ ([7]; 1 µM ligand): 20 ± 3 °C | ΔTm Febr1T-K+ ([8]; 1 µM ligand): 29 ± 2 °C | ΔTm [13]: 20 ± 3 °C | ΔTm [14]: 29 ± 2 °C | ΔTm F10T-K+ ([10]; 1 µM ligand): 1 ± 1 °C | ΔTm F21T-Na+ ([11]; 1 µM ligand): 36 ± 2 °C
